Data from PMC4976923, “Potent Allosteric Dengue Virus NS5 Polymerase Inhibitors: Mechanism of Action and Resistance Profiling” (PLoS Pathogens, 2016).

Columns and labels:
[1] = test system: DENV4 FL NS5; assay: Thermo-denaturation assay, recombinant FL NS5; type: binding; conditions: for Tm change compared to DMSO control, DENV4 FL NS5 WT: 50 µM compound (Fig 7 in S1 Text); for Protein melting temperature, Tm, DENV4 FL NS5 WT: 50 µM compound, DMSO 37.5 (Fig 7 in S1 Text); for Protein melting temperature Tm with compound, FL NS5: +50 μM compound, DMSO control 42.5
Description: Site-directed alanine mutations of DENV4 FL NS5 cDNA were performed using pET28-D4-MY01-22713 NS5FL [23] as a template, according to the manufacturer’s protocol (Stratagene, USA). Protein expressions of DENV1-4 FL NS5 and their stability analyses by thermo-fluorescence were performed as described previously. DENV de novo initiation and elongation FAPA assays were earlier described. […]
6 Fi g .5. Ef fects of N -pocket compounds on DENV pol ymerase thermo-stability. Melting
7 temperatur e (Tm) w as ass essed b y thermo-d enatur ation in presence of the S YPRO Oran ge
8 dye as described in Materials and Methods. (A-F) Representative meltin g curves of DEN V4
10 inhibitors or 5 % DMSO control. […]
16 controls treated with DMSO.

[2] = target: T1, DENV2 FL NS5 L511V (Dengue virus type 2, UniProt P14340, L3003V); type: binding; conditions: 50 µM compound; for Protein melting temperature, Tm, DENV2 FL NS5 L511V: DMSO 35.5
T1 construct: Recombinant DENV2 (A, C) and DENV4 (B, D) FL NS5 proteins bearing single or double amino acid changes; made in house

[3] = test system: DENV2-NGC Ren-LUC Replicon in BHK21; assay: Stable BHK21 DENV2-NGC renilla luciferase replicon assay; type: cell-based; conditions: Dengue virus, DENV2, BHK-21; 48 hr
[4] = test system: HCV replicon; assay: HCV replicon firefly luciferase assay; type: cell-based, hepatitis C virus (HCV) genotype 1b; conditions: Hepatitis C virus; HuH-7; 48 hr; tested up to 25 μM
Description: A549, BHK-21 and Huh7 cells bearing stable DENV2 sub-genomic replicon or transiently electroporated DENV2-NGC replicon or infectious virus cDNAs were seeded into 384-well microplate (3,000 cells per well). After over-night incubation at 37°C with 5% CO2, the cells were treated with 2-fold serially diluted compounds, starting from 20 or 50 μM. At 48 hr of post-incubation, renilla luciferase activities were measured with the ViviRen live-cell substrate (Promega, USA) according to the manufacturer’s protocol. CellTiter-Glo reagent (Promega, USA) was then added to determine cytotoxic effects of compounds. For the HCV replicon assay, Huh-7.5 cells harboring the HCV replicon were seeded into a 96-well microplate (20,000 cells per well). At 48 hr after compound treatment, cells were assayed for firefly luciferase activity by using a Bright-Glo luciferase assay (Promega, USA). NITD-008, a nucleoside inhibitor of DENV and HCV was added as a control.
1 containing 2 % FBS, 1mM L-glutamine and 1 % penicillin-streptom ycin and incubated over-
At 24 h post-seeding, cells were inf ected with DENV1-4 at […]
8 DENV envelope protein ) and DRAQ5 (for nucl ear DNA) . Quantifications of DENV
9 envelope protein were determined using the Opera high content imaging s ystem and anal ysis […]
17 µM concentrations. At 48 hr of post-incubation, r enilla luciferas e activities were measured […]

[5] = test system: WNV (New York strain 3356) replicon; assay: WNV replicon cell-based assay; conditions: 0–50 μM, 2 days
Description: (§1) 4 Compound testing in cells transiently expressing DENV and WNV replicon. R enilla
(§2) 5 luciferas e sub-genomic replicon of DENV2 (strai n New Guinea C) or WN V (New York
(§3) 6 strain 3356) cloned into the pACYC plasmid, was in vitro transcribed using a T7 mMessage
(§4) 7 mMachine kit (Ambion, Austin, TX) after linearization with ClaI, as descri bed previousl y
(§5) 8 [5]. A549 cells were electroporated with 10 μg of replicon RNA using a GenePulser Xcell
(§6) 9 system (Bio-Rad, H ercul es, CA) with 3 pulses, at 450 V, 25 µF, at 5- 10 sec intervals.
(§7) 10 Transfected cells wer e seeded into a 96-w ell plate at 1.5 × 10^4 cells per well, followed b y
(§8) 11 treatment with the compound or the dimethyl sulfoxide (DMSO) control and incubation at
(§9) 12 37°C in 5 % CO2. At various time points post-transfection, cells were w ash ed once with
(§10) 13 phosphate-buffered saline (PBS) and l ysed in 20 μl 1× l ysis buffer (Promega, USA) and
(§11) 14 assa yed fo r luciferase si gnals with a Clarit y luminescence microplate reader (BioT ek, USA)
(§12) 15 using the renilla luciferase assa y s ystem (Promega, USA). CellTiter -Glo reagent was added to
(§13) 16 the l ysates to determine t he c ytotoxicit y effects of compounds.Duplicate w ells were seeded
WNV ( New York strain 3356) replicon cDNA was electropo rated in BHK -21 cells, […]
4 from replicon cells were determined b y measuring cellular renilla luciferase levels. […]
5 points were measured in duplicates.

[6] = test system: DENV2-NGC replicon Wild Type; assay: Transient WT DENV2-NGC replicon in BHK-21 cells; conditions: Dengue virus, DENV2, BHK-21, 48 h, read-out: EC50, DENV2-NGC Replicon, Wild Type
Description: as §1, §2, §3, §4, §5, §6, §7, §8, §9, §10, §11, §12, §13

Row | Compound | Tm change compared to DMSO control, DENV4 FL NS5 WT [1] [°C] | Protein melting temperature, Tm, DENV4 FL NS5 WT [1] [°C] | Protein melting temperature Tm with compound, FL NS5 [1] [°C] | Tm change compared to DMSO control, DENV2 FL NS5 L511V [2] [°C] | Protein melting temperature, Tm, DENV2 FL NS5 L511V [2] [°C] | EC50 [3] [µM] | EC50 [4] [µM] | activity in WNV replicon cell-based assay [5] | EC50 [6] [µM]
1 | COc1cc(OC)c(-c2ccc(C#CCO)s2)cc1C(=O)NS(=O)(=O)c1cccc2cccnc12 [Compound 29] | 3 | 40.5 | 51.5 | 1.0 | 36.5 | 4.6 | > 25 | inactive | 6.7
2 | COc1cccc(S(=O)(=O)NC(=O)c2cc(-c3ccc(C#CCO)s3)c(OC)cc2OC)c1 [Compound 27] | 1 | 38.5 | 46.5 | 0 | 35.5 | 3 | > 25 | inactive | 7.83
